What all share (type): ADME
The target of data set [1] is T1, Multidrug and toxin extrusion protein 2 (Homo sapiens, UniProt Q86VL8).
T1 sequence (Q86VL8 whole entry): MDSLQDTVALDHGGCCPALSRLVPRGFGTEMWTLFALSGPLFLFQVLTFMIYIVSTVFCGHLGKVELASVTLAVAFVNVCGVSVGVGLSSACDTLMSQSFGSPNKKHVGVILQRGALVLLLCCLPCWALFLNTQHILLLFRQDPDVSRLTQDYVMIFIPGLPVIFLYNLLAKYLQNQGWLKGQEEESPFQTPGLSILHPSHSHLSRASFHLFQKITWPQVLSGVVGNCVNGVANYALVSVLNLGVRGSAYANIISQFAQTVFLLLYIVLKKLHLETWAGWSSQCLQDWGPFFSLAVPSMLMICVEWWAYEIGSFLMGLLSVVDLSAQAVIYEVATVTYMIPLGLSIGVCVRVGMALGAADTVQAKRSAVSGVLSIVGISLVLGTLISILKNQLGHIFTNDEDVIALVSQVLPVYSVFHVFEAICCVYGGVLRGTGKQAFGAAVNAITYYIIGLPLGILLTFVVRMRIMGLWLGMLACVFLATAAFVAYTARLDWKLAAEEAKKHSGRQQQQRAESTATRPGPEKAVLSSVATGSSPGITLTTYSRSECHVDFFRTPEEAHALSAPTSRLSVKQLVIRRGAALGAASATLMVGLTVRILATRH
Kind of data set: Substrates of transporters of clinical importance in the absorption and disposition of drugs, MATE2-K.

For data set [2], the target named is T2, Solute carrier family 22 member 2 (Homo sapiens, UniProt O15244).
T2 sequence (O15244 whole entry): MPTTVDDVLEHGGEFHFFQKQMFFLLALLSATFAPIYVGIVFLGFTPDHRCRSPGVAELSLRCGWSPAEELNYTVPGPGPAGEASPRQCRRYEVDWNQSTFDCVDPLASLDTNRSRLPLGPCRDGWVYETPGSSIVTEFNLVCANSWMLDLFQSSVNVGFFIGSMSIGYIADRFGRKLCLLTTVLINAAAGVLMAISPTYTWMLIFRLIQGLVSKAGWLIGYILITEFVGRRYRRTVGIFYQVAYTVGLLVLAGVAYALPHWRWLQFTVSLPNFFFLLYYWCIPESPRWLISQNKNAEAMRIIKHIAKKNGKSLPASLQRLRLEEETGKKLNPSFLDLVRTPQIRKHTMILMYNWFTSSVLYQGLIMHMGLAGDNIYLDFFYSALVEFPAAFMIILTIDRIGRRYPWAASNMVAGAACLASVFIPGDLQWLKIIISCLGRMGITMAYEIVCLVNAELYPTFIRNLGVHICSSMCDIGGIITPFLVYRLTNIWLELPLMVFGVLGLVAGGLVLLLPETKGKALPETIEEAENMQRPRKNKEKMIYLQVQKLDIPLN
Kind of data set: Substrates of transporters of clinical importance in the absorption and disposition of drugs, OCT2.

The target of data set [3] is T3, Multidrug and toxin extrusion protein 1 (Homo sapiens, UniProt Q96FL8).
T3 sequence (Q96FL8 whole entry): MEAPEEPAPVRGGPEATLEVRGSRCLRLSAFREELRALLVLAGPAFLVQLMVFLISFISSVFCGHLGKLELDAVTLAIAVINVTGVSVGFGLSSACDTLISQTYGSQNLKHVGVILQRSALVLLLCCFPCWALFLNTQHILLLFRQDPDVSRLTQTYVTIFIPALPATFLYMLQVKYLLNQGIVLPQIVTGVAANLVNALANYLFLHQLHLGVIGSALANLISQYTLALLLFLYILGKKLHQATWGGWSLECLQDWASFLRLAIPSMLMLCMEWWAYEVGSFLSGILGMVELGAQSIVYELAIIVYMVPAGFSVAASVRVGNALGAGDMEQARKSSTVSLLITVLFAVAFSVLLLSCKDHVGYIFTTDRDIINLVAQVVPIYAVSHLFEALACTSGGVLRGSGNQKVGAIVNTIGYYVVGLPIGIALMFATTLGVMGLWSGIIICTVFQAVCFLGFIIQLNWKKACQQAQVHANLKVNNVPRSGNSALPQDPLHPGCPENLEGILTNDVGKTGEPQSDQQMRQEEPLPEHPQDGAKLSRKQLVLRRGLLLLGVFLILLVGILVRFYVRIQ
Kind of data set: Substrates of transporters of clinical importance in the absorption and disposition of drugs, MATE1.

Data set [4] deals with T4, Solute carrier family 22 member 1 (Homo sapiens, UniProt O15245).
T4 sequence (O15245 whole entry): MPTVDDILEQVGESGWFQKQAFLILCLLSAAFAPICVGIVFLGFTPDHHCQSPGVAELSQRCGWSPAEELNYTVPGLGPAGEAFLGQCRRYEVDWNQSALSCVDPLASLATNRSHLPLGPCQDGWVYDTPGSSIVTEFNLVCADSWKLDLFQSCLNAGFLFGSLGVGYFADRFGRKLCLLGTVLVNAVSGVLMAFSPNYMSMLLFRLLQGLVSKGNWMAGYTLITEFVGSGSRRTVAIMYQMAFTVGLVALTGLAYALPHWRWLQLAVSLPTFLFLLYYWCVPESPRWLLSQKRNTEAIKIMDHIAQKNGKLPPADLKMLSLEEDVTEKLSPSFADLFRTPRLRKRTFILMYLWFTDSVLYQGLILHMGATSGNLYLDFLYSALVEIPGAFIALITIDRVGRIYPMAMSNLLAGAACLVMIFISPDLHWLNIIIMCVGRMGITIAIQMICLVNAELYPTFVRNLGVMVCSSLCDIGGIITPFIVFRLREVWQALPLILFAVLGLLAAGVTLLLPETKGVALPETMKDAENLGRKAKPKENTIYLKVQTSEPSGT
Kind of data set: Substrates of transporters of clinical importance in the absorption and disposition of drugs, OCT1.

The target in data set [5] is T5, Broad substrate specificity ATP-binding cassette transporter ABCG2 (Homo sapiens, UniProt Q9UNQ0).
T5 sequence (Q9UNQ0 whole entry): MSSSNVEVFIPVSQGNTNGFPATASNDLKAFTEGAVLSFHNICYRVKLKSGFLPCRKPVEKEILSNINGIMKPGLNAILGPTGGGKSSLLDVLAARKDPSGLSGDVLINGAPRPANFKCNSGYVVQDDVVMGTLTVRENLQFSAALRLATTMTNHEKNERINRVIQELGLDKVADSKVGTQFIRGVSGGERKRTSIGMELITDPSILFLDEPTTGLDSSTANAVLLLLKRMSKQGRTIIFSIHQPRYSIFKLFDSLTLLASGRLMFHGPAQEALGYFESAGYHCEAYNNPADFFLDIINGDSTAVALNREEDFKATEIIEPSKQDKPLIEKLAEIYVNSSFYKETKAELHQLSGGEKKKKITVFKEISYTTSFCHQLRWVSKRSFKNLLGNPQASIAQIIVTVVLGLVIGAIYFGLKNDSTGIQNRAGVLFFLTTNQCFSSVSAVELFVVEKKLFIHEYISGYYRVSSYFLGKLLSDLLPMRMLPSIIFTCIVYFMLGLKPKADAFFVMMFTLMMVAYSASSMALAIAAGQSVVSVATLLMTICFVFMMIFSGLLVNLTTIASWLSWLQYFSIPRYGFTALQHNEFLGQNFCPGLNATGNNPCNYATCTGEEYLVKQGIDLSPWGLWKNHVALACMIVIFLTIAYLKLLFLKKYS
Kind of data set: Substrates of transporters of clinical importance in the absorption and disposition of drugs, BCRP.

Data set [6] concerns the target ATP-binding cassette sub-family C member 2 (Homo sapiens, UniProt Q92887). Briefly: Substrates of transporters of clinical importance in the absorption and disposition of drugs, MRP2.
Data set [7] deals with T6, Solute carrier organic anion transporter family member 1A2 (Homo sapiens, UniProt P46721).
T6 sequence (P46721 whole entry): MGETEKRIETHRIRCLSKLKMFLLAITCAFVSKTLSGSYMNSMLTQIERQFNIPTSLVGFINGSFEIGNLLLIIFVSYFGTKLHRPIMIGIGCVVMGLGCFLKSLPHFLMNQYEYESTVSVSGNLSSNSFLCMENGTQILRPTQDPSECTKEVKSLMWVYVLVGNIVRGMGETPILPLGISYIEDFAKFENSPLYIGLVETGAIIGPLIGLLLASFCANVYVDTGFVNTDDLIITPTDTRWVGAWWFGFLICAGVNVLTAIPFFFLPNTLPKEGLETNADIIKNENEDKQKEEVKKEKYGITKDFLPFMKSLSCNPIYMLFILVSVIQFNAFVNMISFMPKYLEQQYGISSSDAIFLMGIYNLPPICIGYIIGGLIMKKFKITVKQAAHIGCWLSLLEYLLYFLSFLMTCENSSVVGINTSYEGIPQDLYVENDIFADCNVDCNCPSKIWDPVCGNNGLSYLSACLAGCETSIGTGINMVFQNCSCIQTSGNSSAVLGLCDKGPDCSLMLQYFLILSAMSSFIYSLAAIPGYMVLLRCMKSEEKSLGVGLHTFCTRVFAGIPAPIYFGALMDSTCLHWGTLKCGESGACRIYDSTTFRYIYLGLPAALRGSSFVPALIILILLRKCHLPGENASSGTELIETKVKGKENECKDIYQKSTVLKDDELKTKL
Kind of data set: Inhibitors of transporters of clinical importance in the absorption and disposition of drugs, OATP1A2.

For data set [8], the target named is T2, Solute carrier family 22 member 2. Kind of data set: Inhibitors of transporters of clinical importance in the absorption and disposition of drugs, OCT2.
In data set [9] the target is T7, ATP-binding cassette sub-family C member 4 (Homo sapiens, UniProt O15439).
T7 sequence (O15439 whole entry): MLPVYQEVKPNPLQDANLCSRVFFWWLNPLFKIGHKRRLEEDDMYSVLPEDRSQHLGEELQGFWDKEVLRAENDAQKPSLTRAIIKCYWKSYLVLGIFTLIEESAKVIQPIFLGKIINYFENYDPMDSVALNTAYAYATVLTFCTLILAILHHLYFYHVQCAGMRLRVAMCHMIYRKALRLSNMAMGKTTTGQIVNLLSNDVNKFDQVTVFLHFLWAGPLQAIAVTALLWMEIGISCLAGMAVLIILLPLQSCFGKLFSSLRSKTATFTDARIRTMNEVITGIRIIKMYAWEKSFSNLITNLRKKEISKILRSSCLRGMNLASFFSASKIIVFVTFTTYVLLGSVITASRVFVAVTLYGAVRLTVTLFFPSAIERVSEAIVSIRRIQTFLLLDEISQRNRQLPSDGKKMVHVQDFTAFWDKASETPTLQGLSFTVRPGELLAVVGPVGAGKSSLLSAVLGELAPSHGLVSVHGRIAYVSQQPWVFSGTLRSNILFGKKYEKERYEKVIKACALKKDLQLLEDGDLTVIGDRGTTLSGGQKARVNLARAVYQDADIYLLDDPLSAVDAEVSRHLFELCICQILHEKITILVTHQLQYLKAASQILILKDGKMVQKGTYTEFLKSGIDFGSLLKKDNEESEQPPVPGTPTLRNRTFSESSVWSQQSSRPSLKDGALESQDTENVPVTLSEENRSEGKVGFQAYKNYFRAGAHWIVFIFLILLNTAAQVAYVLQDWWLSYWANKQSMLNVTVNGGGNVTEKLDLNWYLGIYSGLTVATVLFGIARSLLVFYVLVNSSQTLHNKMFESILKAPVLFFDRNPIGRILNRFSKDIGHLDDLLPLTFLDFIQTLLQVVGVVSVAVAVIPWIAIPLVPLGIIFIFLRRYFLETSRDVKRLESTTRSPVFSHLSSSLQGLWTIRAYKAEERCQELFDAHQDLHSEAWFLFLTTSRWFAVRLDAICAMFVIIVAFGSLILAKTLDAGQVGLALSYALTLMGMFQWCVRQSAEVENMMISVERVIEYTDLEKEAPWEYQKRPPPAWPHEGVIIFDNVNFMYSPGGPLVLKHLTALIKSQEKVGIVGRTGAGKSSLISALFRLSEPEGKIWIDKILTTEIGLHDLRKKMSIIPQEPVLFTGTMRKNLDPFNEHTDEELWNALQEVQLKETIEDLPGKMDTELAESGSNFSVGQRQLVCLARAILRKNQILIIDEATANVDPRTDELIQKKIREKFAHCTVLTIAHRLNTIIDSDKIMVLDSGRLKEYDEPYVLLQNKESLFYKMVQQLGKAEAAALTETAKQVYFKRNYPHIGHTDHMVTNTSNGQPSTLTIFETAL
Kind of data set: Substrates of transporters of clinical importance in the absorption and disposition of drugs, MRP4.

ATP-binding cassette sub-family C member 2, sequence (Q92887 whole entry): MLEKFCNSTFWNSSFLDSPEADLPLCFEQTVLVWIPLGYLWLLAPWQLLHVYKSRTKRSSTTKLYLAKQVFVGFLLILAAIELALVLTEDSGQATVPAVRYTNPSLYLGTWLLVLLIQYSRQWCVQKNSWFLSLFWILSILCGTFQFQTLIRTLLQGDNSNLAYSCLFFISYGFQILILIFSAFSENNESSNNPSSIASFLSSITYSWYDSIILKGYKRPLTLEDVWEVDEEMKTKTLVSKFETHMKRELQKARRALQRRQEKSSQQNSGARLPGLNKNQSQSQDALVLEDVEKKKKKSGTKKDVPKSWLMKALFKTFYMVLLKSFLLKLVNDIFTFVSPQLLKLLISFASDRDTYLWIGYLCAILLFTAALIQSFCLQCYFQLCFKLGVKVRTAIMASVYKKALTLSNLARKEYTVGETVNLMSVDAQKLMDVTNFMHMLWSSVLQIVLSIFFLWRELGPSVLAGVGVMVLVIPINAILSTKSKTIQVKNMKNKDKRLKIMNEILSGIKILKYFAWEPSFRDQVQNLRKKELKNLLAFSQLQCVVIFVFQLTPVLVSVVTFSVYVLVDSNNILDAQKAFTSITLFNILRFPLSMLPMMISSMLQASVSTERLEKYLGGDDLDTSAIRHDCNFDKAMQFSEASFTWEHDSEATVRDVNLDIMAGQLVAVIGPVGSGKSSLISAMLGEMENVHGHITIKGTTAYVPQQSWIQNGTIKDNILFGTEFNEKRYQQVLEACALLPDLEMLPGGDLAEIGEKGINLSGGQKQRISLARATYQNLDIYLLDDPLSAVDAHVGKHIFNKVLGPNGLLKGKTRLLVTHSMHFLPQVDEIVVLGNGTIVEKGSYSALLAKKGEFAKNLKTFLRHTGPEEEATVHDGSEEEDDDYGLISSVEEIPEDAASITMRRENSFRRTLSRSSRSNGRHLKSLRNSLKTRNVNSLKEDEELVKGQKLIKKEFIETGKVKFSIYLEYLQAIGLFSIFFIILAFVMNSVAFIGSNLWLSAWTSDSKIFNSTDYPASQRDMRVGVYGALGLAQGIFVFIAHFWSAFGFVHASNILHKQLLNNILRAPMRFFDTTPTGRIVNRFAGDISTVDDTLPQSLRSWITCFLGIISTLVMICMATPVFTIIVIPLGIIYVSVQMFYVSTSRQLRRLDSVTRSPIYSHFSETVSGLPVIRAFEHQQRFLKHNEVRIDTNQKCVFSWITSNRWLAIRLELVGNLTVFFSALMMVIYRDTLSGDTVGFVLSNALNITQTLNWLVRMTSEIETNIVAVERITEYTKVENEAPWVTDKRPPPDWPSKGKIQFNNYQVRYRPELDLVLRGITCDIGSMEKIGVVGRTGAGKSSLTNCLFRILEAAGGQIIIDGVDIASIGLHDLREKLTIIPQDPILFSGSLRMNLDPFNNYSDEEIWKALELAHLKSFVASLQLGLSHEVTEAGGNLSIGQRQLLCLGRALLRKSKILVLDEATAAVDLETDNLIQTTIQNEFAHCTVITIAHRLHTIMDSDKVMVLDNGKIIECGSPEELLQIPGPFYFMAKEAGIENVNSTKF

Take `C[n+]1ccccc1`: the Activity result in data set [1], in data set [2], in data set [3] and in data set [4] was “transporter substrate” each time.

On to `CN(C)C(=N)N=C(N)N` [METFORMIN], for which the Activity entry in data set [1], in data set [2], in data set [3] and in data set [4] was “transporter substrate” throughout.

`O=C1c2c(O)ccc(O)c2C(=O)c2c(NCCNCCO)ccc(NCCNCCO)c21` [MITOXANTRONE]: the Activity result in data set [5] and in data set [6] was “transporter substrate” each time.

As to `C[C@@H]1O[C@@H](O[C@H]2[C@H](Oc3cc(O)c4c(c3)O[C@H](c3ccc(O)cc3)CC4=O)O[C@H](CO)[C@@H](O)[C@@H]2O)[C@H](O)[C@H](O)[C@H]1O` [NARINGIN], the Activity result in data set [7] is listed as “transporter inhibitor”.

Consider `C[C@]12CC[C@H]3[C@@H](CCC4=CC(=O)CC[C@@]43C)[C@@H]1CC[C@@H]2O` [TESTOSTERONE], for which the Activity result in data set [8] is “transporter inhibitor”.

For `CC[N+](CC)(CC)CC` [TETRYLAMMONIUM], the Activity result in data set [1], in [2], in data set [3] and in [4] was “transporter substrate” each time.

On to `CC[C@@]1(O)C(=O)OCc2c1cc1n(c2=O)Cc2cc3c(CN(C)C)c(O)ccc3nc2-1` [TOPOTECAN], for which the Activity entry in data set [9] and in data set [5] was “transporter substrate” each time.

Source of the values: ChEMBL document CHEMBL1743141, “Membrane transporters in drug development” (Nat Rev Drug Discov, 2010).
